Molecules are shown by their SMILES.

We go through 9 compounds from patent US8461149B2, “Compounds useful as protein kinase inhibitors” (Vertex Pharmaceuticals Incorporated, priority 2007, dated 2013).

PLK1, sequence (P53350 whole entry): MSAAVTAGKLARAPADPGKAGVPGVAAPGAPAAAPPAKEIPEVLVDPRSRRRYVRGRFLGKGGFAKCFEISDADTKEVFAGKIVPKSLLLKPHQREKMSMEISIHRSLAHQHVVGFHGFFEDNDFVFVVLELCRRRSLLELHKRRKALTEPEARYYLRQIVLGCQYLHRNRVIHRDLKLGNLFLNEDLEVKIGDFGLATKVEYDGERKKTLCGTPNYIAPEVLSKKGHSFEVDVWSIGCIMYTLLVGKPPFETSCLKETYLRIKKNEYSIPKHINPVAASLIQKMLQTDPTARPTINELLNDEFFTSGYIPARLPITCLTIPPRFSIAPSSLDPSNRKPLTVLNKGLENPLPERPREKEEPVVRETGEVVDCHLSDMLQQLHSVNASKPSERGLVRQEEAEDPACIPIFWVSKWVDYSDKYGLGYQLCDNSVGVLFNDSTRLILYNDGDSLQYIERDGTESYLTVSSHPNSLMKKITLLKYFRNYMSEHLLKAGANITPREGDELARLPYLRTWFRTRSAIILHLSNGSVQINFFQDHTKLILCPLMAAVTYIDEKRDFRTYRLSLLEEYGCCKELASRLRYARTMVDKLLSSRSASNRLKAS

The target in one assay is PLK1 (Homo sapiens, UniProt P53350). As to the kind of experiment: PLK1 inhibition assay (radioactive-phosphate incorporation). In kind it is biochemical. The conditions noted are these: 150 μM ATP, 300 μM peptide, 4 nM PLK1, 90 minutes, 25° C., read-out: Ki in the radioactive incorporation assay (Ki(app)). On the procedure:
The compounds of the present invention are evaluated as inhibitors of human PLK kinase using the following assays.
Compounds were screened for their ability to inhibit PLK1 using a radioactive-phosphate incorporation assay. Assays were carried out in a mixture of 25 mM HEPES (pH 7.5), 10 mM MgCl2, 0.1% BSA, and 2 mM DTT. Final substrate concentrations were 150 μM (350 μM for determining values of less than 1 nM) [γ-33P]ATP (115 mCi 33P ATP/mmol ATP, Amersham Pharmacia Biotech/Sigma Chemicals) and 300 μM (450 μM for determining values of <1 nM) peptide (KKKISDELMDATFADQEAK) (SEQ ID NO:1). Assays were carried out at 25° C. in the presence of 4 nM (1 nM for determining values of less than 1 nM) PLK1. An assay stock buffer solution was prepared containing all of the reagents listed above, with the exception of ATP and the test compound of interest. 30 μL of the stock solution was placed in a 96 well plate followed by addition of 2 μL of DMSO stock containing serial dilutions of the test compound (typically starting from a final concentration of 10 μM with 2-fold serial dilutions) in duplicate (final DMSO concentration 5%). The plate was pre-incubated for 10 minutes at 25° C. and the reaction initiated by addition of 8 μL [γ-33P]ATP (final concentration 150 μM (350 μM for determining values of less than 1 nM))).
The reaction was stopped after 90 minutes (240 minutes for determining values of less than 1 nM) by the addition of 100 μL 0.14M phosphoric acid. A multiscreen phosphocellulose filter 96-well plate (Millipore, Cat. No. MAPHN0B50) was pretreated with 100 μL 0.2M phosphoric acid prior to the addition of 125 μL of the stopped assay mixture. The plate was washed with 200 μL 0.2M phosphoric acid for 4 times. After drying, 100 μL Optiphase ‘SuperMix’ liquid scintillation cocktail (Perkin Elmer) was added to the well prior to scintillation counting (1450 Microbeta Liquid Scintillation Counter, Wallac).
After removing mean background values for all of the data points, Ki(app) data were calculated from non-linear regression analysis of the initial rate data using the Prism software package (GraphPad Prism version 3.0cx for Macintosh, GraphPad Software, San Diego Calif., USA).
As for `COc1cc(C(=O)NC2CC2)ccc1Nc1ncc2c(n1)N([C@@H]1CCC(F)(F)C1)CC(C)(C)C(=O)N2C` [Compound I-1, (R)—N-cyclopropyl-4-(9-(3,3-difluorocyclopentyl)-5,7,7-trimethyl-6-oxo-6,7,8,9-tetrahydro-5H-pyrimido[4,5-b][1,4]diazepin-2-ylamino)-3-methoxybenzamide], the Ki was in the range of 1 to 10 nM.

Consider `COc1cc(C(=O)NC2CC2)ccc1Nc1ncc2c(n1)N([C@@H]1CCC(F)(F)C1)CC1(CC1)C(=O)N2C` [Compound I-4, (R)—N-cyclopropyl-4-(9′-(3,3-difluorocyclopentyl)-5′-methyl-6′-oxo-5′,6′,8′,9′-tetrahydrospiro[cyclopropane-1,7′-pyrimido[4,5-b][1,4]diazepine]-2′-ylamino)-3-methoxybenzamide], for which the Ki fell in the range of 1 to 10 nM.

In the case of `COc1cc(C(=O)N[C@@H]2CCC(F)(F)C2)ccc1Nc1ncc2c(n1)N([C@@H]1CCC(F)(F)C1)CC1(CC1)C(=O)N2C` [Compound I-5, N-((R)-3,3-difluorocyclopentyl)-4-(9′-((R)-3,3-difluorocyclopentyl)-5′-methyl-6′-oxo-5′,6′,8′,9′-tetrahydrospiro[cyclopropane-1,7′-pyrimido[4,5-b][1,4]diazepine]-2′-ylamino)-3-methoxybenzamide], the Ki lay within 1 to 10 nM.

Still in this assay, the particulars now being: conditions for values of less than 1 nM: 350 μM ATP, 450 μM peptide, 1 nM PLK1, 240 minutes, 25° C., read-out: Ki in the radioactive incorporation assay (Ki(app)).
With `COc1cc(C(=O)N[C@@H]2CC[C@@H](F)C2)ccc1Nc1ncc2c(n1)N([C@@H]1CCC(F)(F)C1)CC(C)(C)C(=O)N2C` [Compound I-2, 4-(9-((R)-3,3-difluorocyclopentyl)-5,7,7-trimethyl-6-oxo-6,7,8,9-tetrahydro-5H-pyrimido[4,5-b][1,4]diazepin-2-ylamino)-N-((1R,3R)-3-fluorocyclopentyl)-3-methoxybenzamide], the Ki is less than 1 nM.

Regarding `COc1cc(C(=O)N[C@@H]2CCC(F)(F)C2)ccc1Nc1ncc2c(n1)N([C@@H]1CCC(F)(F)C1)CC(C)(C)C(=O)N2C` [Compound I-3, N-((R)-3,3-difluorocyclopentyl)-4-(9-((R)-3,3-difluorocyclopentyl)-5,7,7-trimethyl-6-oxo-6,7,8,9-tetrahydro-5H-pyrimido[4,5-b][1,4]diazepin-2-ylamino)-3-methoxybenzamide], the Ki is less than 1 nM.

In the case of `CCNC(=O)c1ccc(Nc2ncc3c(n2)N([C@@H]2CCC(F)(F)C2)[C@H](CC)c2nncn2-3)c(OC)c1` [Compound I-6, 4-((R)-5-((R)-3,3-difluorocyclopentyl)-4-ethyl-4,5-dihydro-[1,2,4]triazolo[4,3-f]pteridin-7-ylamino)-N-ethyl-3-methoxybenzamide], the Ki was less than 1 nM.

Consider `CC[C@@H]1c2nncn2-c2cnc(Nc3ccc(C(=O)NC4CC4)cc3OC)nc2N1[C@@H]1CCC(F)(F)C1` [Compound I-7, N-cyclopropyl-4-((R)-5-((R)-3,3-difluorocyclopentyl)-4-ethyl-4,5-dihydro-[1,2,4]triazolo[4,3-f]pteridin-7-ylamino)-3-methoxybenzamide], for which the Ki is less than 1 nM.

With `CCNC(=O)c1ccc(Nc2ncc3c(n2)N([C@@H]2CCC(F)(F)C2)[C@H](CC)C(=O)N3C)c(OC)c1` [Compound I-8, 4-((R)-8-((R)-3,3-difluorocyclopentyl)-7-ethyl-5-methyl-6-oxo-5,6,7,8-tetrahydropteridin-2-ylamino)-N-ethyl-3-methoxybenzamide], the Ki is less than 1 nM.

In the case of `CC[C@@H]1C(=O)N(C)c2cnc(Nc3ccc(C(=O)NC4CC4)cc3OC)nc2N1[C@@H]1CCC(F)(F)C1` [Compound I-9, N-cyclopropyl-4-((R)-8-((R)-3,3-difluorocyclopentyl)-7-ethyl-5-methyl-6-oxo-5,6,7,8-tetrahydropteridin-2-ylamino)-3-methoxybenzamide], the Ki is less than 1 nM.
